# Measurements taken from patent US7501383B2, “Substituted [1,2,4]triazolo[1,5-a]pyrimidines and their use for controlling harmful fungi” (BASF Aktiengesellschaft, priority 2004, dated 2009).
smiles,measurement,value
"CCCCCCc1nc2nnnc-2c(N)n1C [I-2, 5-hexyl-6-methyl-7-aminotriazolopyrimidine]",melting point,193 to 194 °C
